# Activity calls are given as the source filed them. The rule behind the calls is not given here.
# How the values were obtained:
# C2C12 [1] = test: Cytotoxicity against mouse C2C12 cells assessed as reduction in cell viability at 10 uM incubated for 72 hrs by DAPI staining based microscopic analysis relative to control; type: toxicity; conditions: c2c12, 72 h
# Trypanosoma cruzi = test: Anti-trypanosomal activity against Trypanosoma cruzi CAI/72 infected in mouse C2C12 cells at 10 uM incubated for 48 hrs relative to control; type: functional
# [2] = molecular target: Cruzipain (Trypanosoma cruzi) (UniProt P25779); test: Inhibition of Trypanosoma cruzi cruzain using Z-FR-AMC as substrate measured after 10 mins relative to control
# [3] = Selectivity index, ratio of CC50 for mouse C2C12 cells to EC50 for Trypanosoma cruzi CAI/72 intracellular amastigotes; type: toxicity, cell-based; conditions: read-out: Selectivity Index
# C2C12 [4] = test: Cytotoxicity against mouse C2C12 cells assessed as reduction in cell viability at 40 uM incubated for 72 hrs by DAPI staining based microscopic analysis relative to control; type: toxicity; conditions: c2c12, 72 h
# C2C12 [5] = test: Cytotoxicity against mouse C2C12 cells assessed as reduction in cell viability at 3 uM incubated for 72 hrs by DAPI staining based microscopic analysis relative to control; type: toxicity; conditions: c2c12, 72 h
# [6] = Antioxidant activity assessed as inhibition of DPPH radical scavenging activity at 0.03 mg/ml measured after 2 hrs by absorbance based analysis relative to control; type: functional; parameters: scale not given: the % may be the effect or the level left
# [7] = Half life in female Balb/c mouse at 50 mg/kg, po by mass spectrometry; type: ADME, organism-based; conditions: in vivo
# [8] = Antioxidant activity assessed as inhibition of DPPH radical scavenging activity at 0.015 mg/ml measured after 2 hrs by absorbance based analysis relative to control; type: functional; parameters: scale not given: the % may be the effect or the level left
# [9] = Antioxidant activity assessed as inhibition of DPPH radical scavenging activity at 0.06 mg/ml measured after 2 hrs by absorbance based analysis relative to control; type: functional; parameters: scale not given: the % may be the effect or the level left
# Chain of Cruzipain (Trypanosoma cruzi) (P25779 123-467 limits assumed): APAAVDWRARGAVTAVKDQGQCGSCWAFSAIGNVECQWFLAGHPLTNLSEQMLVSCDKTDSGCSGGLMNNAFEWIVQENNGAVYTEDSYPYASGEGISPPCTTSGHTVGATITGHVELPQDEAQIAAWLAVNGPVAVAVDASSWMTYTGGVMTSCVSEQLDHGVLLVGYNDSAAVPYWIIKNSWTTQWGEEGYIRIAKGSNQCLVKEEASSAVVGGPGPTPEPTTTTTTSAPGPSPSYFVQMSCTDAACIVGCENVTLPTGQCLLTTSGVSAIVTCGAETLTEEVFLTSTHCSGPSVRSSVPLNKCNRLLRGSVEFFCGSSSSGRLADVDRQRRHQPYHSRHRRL
SMILES,Activity (Trypanosoma cruzi),inhibition [2],selectivity ratio [3],further results
C/C(=N\NC(N)=S)c1ccsc1,10.89%,62.8%,,Activity (C2C12 [1]): > 100%
O=C(Cn1ccnc1[N+](=O)[O-])NCc1ccccc1 [BENZNIDAZOLE],,,> 6.91,Activity (C2C12 [4]): > 100%
COc1ccc(/C(C)=N/NC(N)=[Se])c(OC)c1,inactive,,,
C/C(=N\Nc1nc(C)c[se]1)C12CC3CC(CC(C3)C1)C2,,inactive,,
C/C(=N\Nc1nc(C)cs1)c1ccc([N+](=O)[O-])cc1,inactive,,,
COc1cccc(/C(C)=N/Nc2nc(C)c[se]2)c1,,,> 3.75,
C/C(=N\NC(N)=S)c1ccc(C#N)cc1,31.58%,98.8%,,Activity (C2C12 [1]): > 100%
C/C(=N\NC(N)=S)C12CC3C[C@H](C1)C[C@H](C3)C2,38.73%,,,Activity (C2C12 [1]): > 100%
C/C(Cc1cccc(Cl)c1)=N\NC(N)=S,,,> 3.42,
COc1ccc(/C(C)=N/Nc2nc(C)c[se]2)c(OC)c1,,inactive,,
C/C(=N\NC(N)=[Se])c1ccc(Br)cc1,,,> 13,
CN1CCN(C(=O)N[C@@H](Cc2ccccc2)C(=O)N[C@H](/C=C/S(=O)(=O)c2ccccc2)CCc2ccccc2)CC1 [K-777],,,,Activity (C2C12 [5]): > 100%
C/C(=N\Nc1nc(C)cs1)c1ccc(C(F)(F)F)cc1,inactive,,,
C/C(=N\Nc1nc(C)c[se]1)c1cccc([N+](=O)[O-])c1.Cl,,,> 32.5,Activity [6]: 78%; half-life [7]: 1 h; Activity [8]: 77.3%; Activity [9]: 78.3%
C/C(=N\NC(N)=S)[C@]12CC3C[C@@H](C[C@H](C3)C1)C2,,5.06%,,
C/C(=N\Nc1nc(C)c[se]1)c1ccsc1,,inactive,> 2.68,
C/C(=N\Nc1nc(C)c[se]1)c1cccc(Cl)c1,,,> 19,
O=C1O[C@H]([C@@H](O)CO)C(O)=C1O,,,,Activity [6]: 80.3%; Activity [8]: 65.3%; Activity [9]: 80.3%
C/C(=N\NC(N)=[Se])c1ccc(F)c(F)c1,inactive,,,
C/C(=N\NC(N)=S)c1cccc(Cl)c1,,,~1,
